Patent publication US10413583B2, “Synthetic substrates for enzymes that catalyze reactions of modified cysteines and related methods” (The University of Chicago, priority 2016, dated 2019)

System: HEK293T cells
Experiment: Fluorescence imaging of RDP-1 and RDP-2 with HEK293T cells
Format: cell-based, human
Settings: for change in depalmitoylation activity from RDP-1: 10 μM inhibitor 30 min
Method: HEK293T were plated with […] of DMEM (Gibco, Gaithersburg, Md., United States of America; High Glucose, Glutamax, 10% FBS) a four well chambered imaging dish (D35C4-20-1.5-N, Cellvis, Mountain View, Calif., United States of America) which were precoated with 4 μg Poly-D-lysine (30-70 kilodalton (KDa), Alfa Aesar, Haverhill, Mass., United States of America) for 2 h at room temperature or overnight at 4° C. and grown to ca. 80% confluence prior to imaging. 30 min before the addition of the RDP, the cell culture media was removed and cells were washed with 500 μL of serum-free DMEM (Gibco, Gaithersburg, Md., United States of America, High Glucose, Glutamax, no FBS). The media was then replaced with 500 μL of serum-free DMEM containing 100 nM Mitotracker Deep Red (Thermo Fisher Scientific, Waltham, Mass., United States of America; to assist in focusing and processing) and either 0.1% DMSO carrier as a control or Palm B, ML348, or ML349 in DMSO and incubated for 30 min at 37° C. and 5% CO2. The media was removed, the cells were washed with 500 μL of Live Cell Imaging Solution (Thermo Fisher Scientific, Waltham, Mass., United States of America), and 500 μL of 1 μM RDP-1 or RDP-2 along with the appropriate inhibitor or DMSO as control in Live Cell Imaging Solution was added to each well. After incubation for 10 min at 37° C. and 5% CO2, the cells were washed with 500 μL Live Cell Imaging Solution and 500 μL of Live Cell Imaging Solution containing DMSO or the appropriate inhibitor was added to the cells immediately before images were obtained on an inverted epi-fluorescence microscope (Olympus IX83; Olympus Corporation, Tokyo, Japan) attached with EMCCD camera (Photometrics EVOLVE™ Delta; Photometrics, Tucson, Ariz., United States of America) with 40× oil objective (N/A 1.3) for RDP-1 (excitation filter 1 430/24 nm, dichroic chroma 89007, emission filter 1 470/24 nm, exposure time 100 ms, EM gain 80, excitation filter 2 480/20 nm, dichroic chroma 49014, emission filter 2 575/40 nm, exposure time 70 ms, EM gain 50) or for RDP-2 (excitation filter 1 430/24 nm, dichroic chroma 89007, emission filter 1 470/24 nm, exposure time 70 ms, EM gain 50, excitation filter 2 480/20, dichroic chroma 49014, emission filter 2 575/40 nm, exposure time 50 ms, EM gain 30), brightfield (exposure time 50 ms, EM gain 30), and MitoTracker Deep Red: (excitation filter 640/30 nm, emission filter 705/72 nm, dichroic chroma 89016, exposure time 15 ms, EM gain 15). Analyses were performed in ImageJ as described below. Each experiment was repeated at least three separate times with identical results.
The probe channel data were expressed as a ratio of the blue channel divided by the green channel and normalized to the average fluorescence intensity of the control conditions. To eliminate errors from autofluorescence, the images were thresholded using the bluer channel images at the same minimum level that included the maximum number of cells in focus (as determined visually by the mitocondrial dye) while limiting the signal from areas where cells are not present. The average value of all nonzero pixels from the blue channel:green channel ratio image were calculated in ImageJ for three different measurements from each experiment. The percent deprotected was estimated by imaging RDP-1/2 in buffer (20 mM HEPES, 150 mM NaCl, 0.1% Triton X-100, pH 7.4, 0.1% DMSO) and for dye deprotected with 20 mM DTT in buffer (20 mM HEPES, 150 mM NaCl, 0.1% Triton X-100, pH 7.4, 0.1% DMSO) for 1 h at room temperature before aliquoted into individual tubes and stored at −80° C. A fresh aliquot of the solution was thawed for each experiment and diluted to 250 nM (RDP-1) or 500 nM (RDP-2) in buffer (20 mM HEPES, 150 mM NaCl, 0.1% Triton X-100, pH 7.4, 10 mM DTT) and allowed to equilibrate for 30 m before being imaged. […]

| Compound | decrease in depalmitoylation activity, RDP-2 (5 μM ML348 30 min, 1 μM RDP-2) | change in depalmitoylation activity from RDP-1 (1 μM RDP-1) | increase in depalmitoylation activity, RDP-2 (5 μM ML349 30 min, 1 μM RDP-2) | decrease of measured depalmitoylation activity, RDP-1 (20 μM PalmB 30 min pretreatment, 1 μM RDP-1) | decrease of measured depalmitoylation activity, RDP-2 (20 μM PalmB 30 min pretreatment, 1 μM RDP-2) |
| --- | --- | --- | --- | --- | --- |
| O=C(CN1CCN(C(=O)c2ccco2)CC1)Nc1cc(C(F)(F)F)ccc1Cl [ML348] | about 30% | slight increase |  |  |  |
| COc1ccc(N2CCN(C(=O)c3cc4c(s3)-c3ccccc3S(=O)(=O)C4)CC2)cc1 [ML349] |  | slight increase | about 12% |  |  |
| CCCCCCCCCC[C@@H]1C(=O)O[C@H]1CCc1ccc(OC)c(OC)c1 [PalmB, palmostatin B] |  |  |  | almost in half | almost in half |
